Results published in patent US20250032590A1, “PARATHYROID HORMONE COMPOUNDS IN THE TREATMENT OF HYPOPARATHYROIDISM” (AMOLYT PHARMA, priority 2023, published 2025).
“Also recorded” adds a separate entry of the source. No end group written: not given here.

How the values were obtained:
PTX mice = assay: Serum calcium after single dosing in HP PTX mouse model (Example 1); format: in vivo; settings: compared with PTH (1-34)
Text: In FIG. 1, the black line indicates the impact of PTX in mice, resulting in serum calcium levels well below normal levels.

TPTX rats [1] = assay: Serum calcium and phosphate, 28-day daily sc dosing in HP TPTX rat model (Example 2); format: in vivo; settings: 7.7 μg/kg/day
Procedure: Thyroid-parathyroidectomized, or TPTX, rats were treated with daily subcutaneous injection of AZP-3601 at doses ranging from 3.8 μg/kg/day to 30.7 μg/kg/day. Treatment was continued for 28 days. […] The increase in calcium accumulated over time (over the first 15 to 21 days), but became more constant thereafter, indicating the development of a steady-state effect (FIG. 2). Due to the cumulative effect, lower doses of AZP-3601 were required to eventually increase blood calcium levels into the normal range as compared to the dose required with a single injection.

Cynomolgus monkeys [2] = assay: 39-week daily sc study in non-human primates: bone biomarkers, BMD (qCT), histopathology (Example 8); format: in vivo, cynomolgus monkey
Procedure: (§1) To further examine the effect of chronic AZP-3601 treatment on bone, both 13-week and 39-week studies were conducted in non-human primates (NHP), which are considered a relevant species with regard to AZP-3601 effects on serum calcium. Groups of 3 or 4 Cynomolgus monkeys of each sex were given daily subcutaneous injections of either vehicle or AZP-3601 at doses of 1, 2.5 or 10 μg/kg for either 13 or 39 weeks, as outlined in Table 2.
• Serum bone biomarkers at baseline and weeks 4, 8, 13, 26 and 39; • In-life BMD by quantitative computed tomography (qCT) at baseline and weeks 26 and 39; • Histopathological examination of bone at week 39.
(§2) At the end of the 13-week study, right femur, right tibia and the L4 lumbar vertebra were collected from 3 animals/group/sex and bone mineral density (BMD) was measured by dual-energy X-ray absorptiometry. The left femur was submitted to histopathological examination. […] In the 39-week study, blood samples were collected from 4 animals/group/sex prior to and during weeks 4, 8, 13, 26 and 39 of treatment for measurement of bone biomarkers. In-life BMD of left femur, left tibia and L4 lumbar vertebra was measured by quantitative computed tomography (qCT) prior to and during weeks 26 and 39 of treatment (FIGS. 9A, 9B, 9C, 9D, 9E and 9F). At the end of the treatment period, femurs were processed for histopathological examination.
Prior to treatment, BMD was homogeneous among all groups for all the three bone sites examined.

TPTX rats [3] = assay: Urinary calcium, repeated daily sc dosing in HP TPTX rat model (Example 4); format: in vivo; settings: 30.7 μg/kg/day
Procedure: To examine the effect of repeated dosing with AZP-3601 on urinary calcium levels, TPTX rats were treated with daily subcutaneous injection of AZP-3601 with doses ranging from 3.8 to 30.7 μg/kg/day. As additional controls, separate groups of TPTX rats received daily injections of either natural PTH (1-84) or the vehicle, and a group of normal (with intact thyroid and parathyroid glands, or sham) rats were injected with vehicle. […] The observed increase in urinary calcium excretion with the high dose was a normal kidney response to clear excess blood calcium (FIG. 4).

[4] = Plasma detectability after single injection in cynomolgus monkeys; format: in vivo, cynomolgus monkey
Procedure: To further examine how the potent and sustained biological activity induced by AZP-3601 could translate into potential clinical benefit for […] patients, its activity was examined in normal cynomolgus monkeys, a species much closer to humans and the most relevant for first in human dose-selection. Single injections of AZP-3601 were administered to normal cynomolgus monkeys. […] The dissociation between pharmacokinetic profile and pharmacodynamic effect is due to the short circulating half-life of AZP-3601 as opposed to the prolonged signaling caused by AZP-3601's potent interaction with the R^0 conformation of the PTH1 receptor.

[5] = system: subjects with hypoparathyroidism (HP); assay: Open-label multiple ascending dose study plus 2-month extension in subjects with hypoparathyroidism (Examples 10, 11); format: in vivo, human
Text: Part C: Part C of the assessment was an open-label multiple ascending dose (MAD) study in male or female subjects with hypoparathyroidism (HP) who are on standard or care treatment (treatment with oral calcium and active vitamin D) to evaluate the safety and tolerability, PK, and PD of AZP-3601. Up to 2 cohorts of approximately 12 patients each were planned for this part of the study. Prior to the treatment period, there was an optimization period of up to 8 weeks during which doses of oral calcium and active vitamin D were adjusted to achieve a baseline target range of albumin-corrected serum calcium (7.8 to 9.0 mg/dL, ie, 1.95 to 2.25 mmol/L) and therefore ensuring a close baseline for all patients. During this optimization period, any serum 25-hydroxy vitamin D (native vitamin D) and/or magnesium deficiencies were corrected. During the treatment period, patients in Part C received AZP-3601 for 28 days as daily sc abdominal injections (with rotation of injection sites every dosing day). Doses of oral calcium and active vitamin D supplements were reduced during the initial 14 days of treatment while maintaining albumin-corrected serum calcium in the target range (7.8 to 9.0 mg/dL, ie, 1.95 to 2.25 mmol/L). Reductions of both oral calcium and active vitamin D supplements were performed using a staged approach until the active vitamin D dose were eliminated and the oral calcium dose were reduced to or below 500 mg/day. Based on animal data, serum calcium was expected to increase progressively following repeated administration of AZP-3601 and PD steady state was expected to be observed within the first 5 days of dosing. Staggered reductions of doses of oral calcium and active vitamin D supplements were therefore performed at near-steady state based on the predose albumin-corrected serum calcium value. The following treatments are administered in Part C in an open-label fashion: • Cohort C1: multiple sc doses of 20 mg AZP-3601 (n=12) qd from Day 1 to Day 28 (dose increase of AZP-3601 to 40 mg was allowed from Day 14 onwards) • Cohort C2: multiple sc doses of a fixed dose of 10 mg AZP-3601 (n=12) qd from Day 1 to Day 28 (dose of AZP-3601 may be increased at a fixed dose of 20 mg from Day 14 onwards)
During the extension phase, patients had their AZP-3601 dose increased in increments of 10 mg to a maximum dose of 60 mg (Cohort 1) and of 80 mg (Cohort 2).
The extension phase started immediately following Day 28 visit of the Main treatment period. Patients received AZP-3601 for 56 days (2 months) as daily sc injections from Day 29 onwards (with rotation of injection sites each day of administration). The goal was to optimize AZP-3601 dosing across a dose range while doses of oral calcium and active vitamin D were as low as safely possible and albumin-corrected serum calcium was maintained within the target range of 7.8 to 9.0 mg/dL (1.95 to 2.25 mmol/L). For patients who were taking minimal or no supplemental calcium (≤500 mg/day) and no vitamin D on Day 28, the AZP-3601 dose from the previous 14 days of treatment (Part C, Main Treatment Period) was maintained and adjusted when needed during the Extension Phase. For patients who were still taking active vitamin D and/or more than 500 mg/day of oral calcium on Day 28, a progressive reduction of supplements was carried out while increasing the dose of AZP-3601. […]

non-human primates = settings: 10.7 μg/kg or 42.7 μg/kg; cited from earlier work
Cynomolgus monkeys [6] = assay: 13-week daily sc study in non-human primates: ex-vivo BMD (DXA), bone histopathology (Example 8); set-up: species or system cynomolgus monkey; settings: Cynomolgus monkeys, 1, 2.5 or 10 μg/kg daily sc, 13 weeks
Procedure: as §1
• Ex-vivo bone mineral density (BMD) by dual-energy X-ray absorptiometry (DXA) at week 13; • Histopathological examination of bone at week 13.
as §2

[7] = Cynomolgus monkeys, 1, 2.5 or 10 μg/kg daily sc, weeks 4 to 39
[8] = HP subjects of both cohorts, 84 days
[9] = HP subjects, various bone sites, including patients with osteopenia

AVAEIQLMHQRAKWIQDARRRAFLHKLIAEIHTAEI [AZP-3601, M-PTH(1-14)/PTHrP(15-36)]
half-life (PTX mice): equally short half-life as PTH (1-34) | change in bone at the optimal dose (TPTX rats [1]): without producing any significant change in bone | anabolic bone biomarker P1NP (Cynomolgus monkeys [2]; [7]): no treatment-related changes; also recorded: no significant effect on either anabolic or catabolic bone biomarkers | catabolic bone biomarker CTx (Cynomolgus monkeys [2]; [7]): no treatment-related changes; also recorded: no significant effect on either anabolic or catabolic bone biomarkers | in-life BMD of femur, tibia and L4 lumbar vertebra by qCT (Cynomolgus monkeys [2]; Cynomolgus monkeys, 39-week study, versus pre-treatment values): no statistically significant changes in BMD | histological examination of the femur (Cynomolgus monkeys [2]; Cynomolgus monkeys, week 39): no noteworthy findings | serum calcium at the highest dose (TPTX rats [3]): induced overt hypercalcemia | detectability in plasma post-dosing [4]: detectable in plasma for only up to one hour post-dosing | bone mineral density (BMD) [5, 8]: remains stable | trabecular bone score (TBS) [5, 8]: remains stable | mean bone markers relative to upper limit of normal ([5]; HP subjects, 84 days): never increased either mean bone marker above the upper limit of normal level | T-score [5, 9]: remain stable | Z-score [5, 9]: remain stable | serum calcium at highest dose levels (non-human primates): induced significant hypercalcemia | BMD of femur, tibia and L4 lumbar vertebra by DXA (Cynomolgus monkeys [6]): no evidence of any treatment-related effect | histopathological examination of femur (Cynomolgus monkeys [6]): no evidence of any treatment-related effect
